Measurements published in patent publication US8673578B2, “Methods of identifying antagonists of the hTAS2R46 bitter taste receptor” (Deutsches Institut für Ernahrungsforschung Potsdam-Rehbrücke, priority 2009, dated 2014).

What was measured:
Test in all cases: calcium imaging (FLIPR), effect on agonist-dependent hTAS2R activation
Assay type in all cases: cell-based
[1] = target: T1, hTAS2R5 (Homo sapiens, UniProt Q9NYW4); settings: 100 μM test substance; agonist denatonium saccharide 3000 μM; agonist alone = 100%
T1 construct: expressed in transfected cells; host or cells: HEK293T cells stably expressing chimeric Gα16gust44, transient transfection
T1 sequence (Q9NYW4 1-299): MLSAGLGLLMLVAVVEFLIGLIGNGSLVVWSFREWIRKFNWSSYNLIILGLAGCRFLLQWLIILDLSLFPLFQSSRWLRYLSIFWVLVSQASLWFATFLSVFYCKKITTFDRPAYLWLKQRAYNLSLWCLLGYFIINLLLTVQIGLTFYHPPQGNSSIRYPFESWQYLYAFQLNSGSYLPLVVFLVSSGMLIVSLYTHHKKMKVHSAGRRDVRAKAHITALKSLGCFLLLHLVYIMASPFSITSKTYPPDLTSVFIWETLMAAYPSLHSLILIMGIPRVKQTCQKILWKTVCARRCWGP
Excerpt: (§1) Human TAS2R cDNAs were cloned into pcDNA5/FRT (Invitrogen, San Diego, Calif.). For adequate plasma membrane targeting, receptor cDNA was fused to the aminoterminal sequence of the rat somatostatin type 3 receptor at the aminoterminus of the recombinant protein (Bufe, B., T. Hofmann, et al. (2002) Nat Genet. 32(3): 397-401). For immunological detection, the Herpes simplex Glycoprotein D epitope was supplemented at the carboxyterminus of the recombinant protein (Bufe et al., supra). Receptor constructs were transiently transfected into HEK293T cells stably expressing the chimeric G protein subunit Gα16gust44 (Ueda, T., S. Ugawa, et al. (2003) J Neurosci 23(19): 7376-80) using Lipofectamine 2000 (Invitrogen, San Diego, Calif.) in 96-well plates.
(§2) Calcium Imaging experiments were performed 24 h after transfection using a Fluorometric Imaging Plate Reader (FLIPR, Molecular Devices, Munich, Germany) as previously described (Bufe et al., supra). Taste active compounds were ordered from Sigma (Sigma-Aldrich, Taufkirchen, Germany). Absinthin, 3β hydroxy dihydro costunolide and 3β hydroxy pelenolide were kindly provided by Giovanni Appendino (Novara, Italy). Test substances were directly dissolved in C1 buffer (130 mM NaCl, 10 mM Na-Hepes, 10 mM Glucose, 5 mM KCl, 2 mM CaCl2, pH 7.4) or in DMSO, respectively. DMSO stocks were further diluted in C1 buffer not exceeding a final DMSO concentration of 1% on the cells. For the investigation of antagonistic effects, test substances were premixed. Agonists were applied at concentrations corresponding to EC90, except where indicated otherwise (Table 2). Data were collected from 3 independent experiments performed in quadruplicates and processed with SigmaPlot (SPSS, Chicago, Ill.). Fluorescence signals after application of test substances were corrected for and normalized to background fluorescence (ΔF/F═(F−F0)/F0), and baseline noise was subtracted. Calculation of dose-response curves was done by nonlinear regression using the function f(y)=((a−d)/(1+(x/EC50)^nH)+d).
(§3) To test 3β hydroxy dihydro costunolide and 3β hydroxy pelenolide for antagonistic or enhancing effects on hTAS2R activation, transfected cells were stimulated with cognate agonist bitter substances at EC90 concentrations (Table 2) without 3β hydroxy dihydro costunolide and 3β hydroxy pelenolide. The cellular responses after application of the agonist alone were set to 100%, responses obtained after coapplication of agonists and 100 μM 3β hydroxy dihydro costunolide or 100 μM 3β hydroxy pelenolide are shown relative to this value (FIG. 4).

[2] = target: T2, hTAS2R7 (Homo sapiens, UniProt Q9NYW3); settings: 100 μM test substance; agonist quinine sulfate 10 μM; agonist alone = 100%
T2 construct: expressed in transfected cells; host or cells: HEK293T cells stably expressing chimeric Gα16gust44, transient transfection
T2 sequence (Q9NYW3 1-318): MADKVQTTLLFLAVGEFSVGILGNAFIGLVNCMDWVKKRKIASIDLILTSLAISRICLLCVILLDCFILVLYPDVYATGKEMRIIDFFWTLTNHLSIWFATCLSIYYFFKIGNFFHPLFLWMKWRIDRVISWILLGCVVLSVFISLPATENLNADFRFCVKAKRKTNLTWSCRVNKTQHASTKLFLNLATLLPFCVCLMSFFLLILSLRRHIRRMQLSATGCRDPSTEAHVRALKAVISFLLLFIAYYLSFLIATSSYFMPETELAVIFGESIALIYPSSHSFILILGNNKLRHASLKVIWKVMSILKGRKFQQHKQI
Excerpt: as §1, §2, §3

[3] = target: T3, hTAS2R44 (Homo sapiens, UniProt P59538, L162M); settings: 100 μM test substance; agonist aristolochic acids 3 μM (EC90); agonist alone = 100%
T3 construct: expressed in transfected cells; host or cells: HEK293T cells stably expressing chimeric Gα16gust44, transient transfection
T3 sequence (P59538 1-309 L162M): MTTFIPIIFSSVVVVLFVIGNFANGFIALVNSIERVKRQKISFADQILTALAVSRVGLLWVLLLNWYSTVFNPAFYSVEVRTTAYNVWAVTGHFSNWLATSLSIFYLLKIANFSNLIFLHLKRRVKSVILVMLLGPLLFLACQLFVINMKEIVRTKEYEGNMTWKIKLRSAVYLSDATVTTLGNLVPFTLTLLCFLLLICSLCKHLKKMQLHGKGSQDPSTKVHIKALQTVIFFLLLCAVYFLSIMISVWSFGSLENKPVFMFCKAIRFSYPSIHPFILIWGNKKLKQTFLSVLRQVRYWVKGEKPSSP
Excerpt: as §1, §2, §3

SMILES | agonist-dependent response of hTAS2R5-expressing cells on coapplication [1] | agonist-dependent response of hTAS2R7-expressing cells on coapplication [2] | agonist-dependent response of hTAS2R44-expressing cells on coapplication [3]
C/C1=C\C[C@H](O)/C(C)=C/[C@H]2OC(=O)[C@@H](C)C2CC1 (stereo partly drawn) [3β hydroxy dihydro costunolide] | increased responses | increased responses | –
C/C1=C\C[C@H](O)[C@@H](C)C[C@H]2OC(=O)[C@@H](C)[C@@H]2CC1 [3β hydroxy pelenolide] | – | – | moderately attenuating effect
